Measurements from patent US20190358201A1 (NantCell, Inc., priority 2018, published 2019).
Values belong to the compound of their own block, whether it stands above or below them.

Tests used:
[1] = Sensitivity and worst-case sensitivity analysis of PFS, aldoxorubicin vs doxorubicin (ITT population, independent assessment); type: in vivo, human; settings: for HR (95% CI): stratified Cox regression; for PFS Events: 42 doxorubicin / 84 aldoxorubicin patients
Method: Sensitivity Analysis: To assess the impact of censoring the 8 patients with no baseline imaging at the date of randomization, a sensitivity analysis was conducted where a PFS event was imputed at the date of randomization. This analysis is presented in Table 1 showing the sensitivity analysis of PFS (ITT Population^a).
(§1) PFS is defined as the time from randomization to the date of first objective documentation of disease progression or death (any cause), whichever comes first. CI=Confidence interval; ECOG=Eastern Cooperative Oncology Group; HR=Hazard ratio; PFS=Progression-free survival; PS=Performance status. ^a The ITT Population comprised all randomized patients. ^bP-value is from stratified log-rank test with ECOG PS (0 to 1, 2) and chemotherapy (no prior chemotherapy or prior adjuvant/neoadjuvant chemotherapy) as stratification factors. Hazard ratio and 95% CI are from a Cox regression model stratified by ECOG PS (0 1, 2) and chemotherapy (no prior chemotherapy or prior adjuvant/neoadjuvant chemotherapy).
This analysis is presented in Table 2 (Worst-Case Sensitivity Analysis of PFS (ITT population^a)).
as §1, with “status. ^aThe” for “status. ^a The”, “randomized patients.^b P-value” for “randomized patients. ^bP-value”, “is based on a” for “is from”

[2] = LVEF changes, Phase 2 study (INNO-206-P2-STS-01); type: in vivo, human; settings: for Subjects with LVEF < 50% at any post-baseline cycle / Subjects with a 10% fall in LVEF: Phase 2, doxorubicin median 4 cycles of 75 mg/m^2 (N 40), aldoxorubicin median 6 cycles of 350 mg/m^2 (N 83)
[3] = LVEF changes, Phase 3 study (P3-STS-01); type: in vivo, human
[4] = Cardiac function by 2D echocardiogram in patients treated for at least 6 cycles of aldoxorubicin (Phase 1/2 with ifosfamide/mesna and Phase 3 alone); type: in vivo, human
Method: Fifty-two patients enrolled in a Phase 1/2 study of aldoxorubicin and ifosfamide/mesna and a Phase 3 study using aldoxorubicin alone were treated for at least 6 cycles of aldoxorubicin at either 250 mg/m^2 or 350 mg/m^2 per dose i. v. every 3 weeks. Cardiac function using 2D echocardiogram was evaluated at regular intervals every two cycles of aldoxorubicin until end of treatment and every six months after completion of the treatment.
After treatment, the cumulative aldoxorubicin dose for these patients ranged from […] to 7,500 mg/m^2. […] Ventricular ejection fractions ranged from 45-74% baseline, and 50-77% at end of treatment, median being 60% both at the beginning and end of treatment. Therefore, it should be appreciated that aldoxorubicin lacks cardiotoxicity in these patients treated with aldoxorubicin, alone or in combination with ifosfamide/mesna.

[5] = Tolerability of higher total cumulative doses of aldoxorubicin in patients; type: in vivo, human
Method: Based on the results above, the inventors investigated whether even higher total cumulative doses of aldoxorubicin could be tolerated. To that end, patients were administered total cumulative dosages of up to 3,000 mg/m^2, up to 4,000 mg/m^2, up to 5,000 mg/m^2, up to 6,000 mg/m^2, up to 7,000 mg/m^2, up to 8,000 mg/m^2, up to 9,000 mg/m^2, up to 10,000 mg/m^2, up to 11,000 mg/m^2, up to 12,000 mg/m^2, up to 13,000 mg/m^2, up to 14,000 mg/m^2, and even higher. […] As described herein, cardiotoxicity may be monitored by monitoring the level of metabolite doxorubicinol in the cardiac cells. Suitable cumulative dosages of aldoxorubicin include those that will not adversely affect LVEF. As such, LVEF of patients receiving aldoxorubicin will typically be in the range of 55% to 70%. Thus, in some embodiments, the patients may have LVEF of 55%-60%, or 60%-65%, or 65%-70%. Less preferably, aldoxorubicin may be administered to the patient until reaching a slightly lower than normal LVEF, say between 50%-54%, or 45%-50%, or 40%-45%.

[6] = Alopecia induction in patients; type: in vivo, human; settings: aldoxorubicin administered instead of doxorubicin
soft tissue sarcoma = settings: vs investigator's choice, entire study population; p=0.12, 95% CI 0.64-1.06; cited from earlier work
[7] = cited from earlier work
[8] = Formation of doxorubicinol metabolite and pharmacokinetics after administration; settings: after administration to patients
[9] = sensitivity analysis of PFS, text to Table 1 / FIG. 2
[10] = sensitivity analysis, PFS event imputed at randomization for 8 patients without baseline imaging, ITT, independent assessment
[11] = sensitivity analysis, ITT, independent assessment
[12] = worst-case sensitivity analysis, PFS event imputed at date of censoring, ITT
[13] = worst-case sensitivity analysis, ITT, independent assessment
[14] = Phase 3, doxorubicin N 47, aldoxorubicin N 213

SMILES: COc1cccc2c1C(=O)c1c(O)c3c(c(O)c1C2=O)C[C@@](O)(/C(CO)=N/NC(=O)CCCCCN1C(=O)C=CC1=O)C[C@@H]3O[C@H]1C[C@H](N)[C@H](O)[C@H](C)O1 [Aldoxorubicin, (6-maleimidocaproyl) hydrazone derivative of doxorubicin]
Median PFS [1, 9]: 170 days | HR as stated in text ([1]; sensitivity analysis of PFS, aldoxorubicin vs doxorubicin, p=0.032, 95% CI [0.38, 0.95]): 0.60 | HR (95% CI) ([1]; sensitivity analysis of PFS, aldoxorubicin vs doxorubicin): 0.60 (0.38, 0.95) | PFS Events [1, 10]: 52 | Median PFS [1, 11]: 132.0 days | HR (95% CI) ([1]; worst-case sensitivity analysis of PFS, aldoxorubicin vs doxorubicin): 0.63 (0.43, 0.93) | PFS Events [1, 12]: 84 | Median PFS [1, 13]: 88.5 days | Decreases in LVEF (MUGA or echocardiogram) ([2]; Phase 2, aldoxorubicin treatment group): no clinically relevant decreases in LVEF were observed | Subjects with LVEF < 50% at any post-baseline cycle [2]: 0 n (%) | Subjects with a 10% fall in LVEF [2]: 9 (12.2) n (%) | Cardiotoxicity ([3]; Phase 3, 350 mg/m^2/cycle, up to 40 cycles, as compared to doxorubicin): minimal or no cardiotoxicity | Subjects with LVEF below 50% of any post-baseline visit [3, 14]: 15 (7) n (%) | Subjects with ≥ 20% LVEF decrease from baseline at any post-baseline visit [3, 14]: 9 (4.2) n (%) | Ventricular ejection fraction, median ([4]; both at the beginning and end of treatment): 60% | Clinical congestive heart failure ([4]; eleven patients with prior doxorubicin, cumulative aldoxorubicin dose 1,000 to 7,500 mg/m^2): no patient developed any sign or symptom of clinical congestive heart failure | Ventricular ejection fraction at end of treatment (range) ([4]; end of treatment, baseline range 45-74%): 50-77% | Cardiac toxicity ([4]; up to doxorubicin equivalent doses of 7,500 mg/m^2, alone or with ifosfamide/mesna): did not find any evidence of cardiac toxicity | Cardiotoxicity ([5]; cumulative dose equivalent to doxorubicin significantly more than 10× 550 mg/m^2): no or substantially reduced cardiotoxicity | Cardiotoxicity ([5]; patients, doxorubicin equivalent doses even beyond 3000 mg/m^2): no cardiotoxicity was observed | Tolerability, cardiotoxicity and/or LVEF ([5]; total cumulative doses of 14,000 mg/m^2): tolerated without any significant effect on cardiotoxicity and/or LVEF | Alopecia induction [6]: minimal alopecia induction | PFS hazard ratio (HR) (soft tissue sarcoma): 0.81 | Recommended doxorubicin equivalent dose ([7]; Clin Cancer Res 2007, 13(16)): 260 mg/m^2 | Formation of doxorubicinol [8]: no detectable doxorubicinol | Formation of doxorubicinol ([8]; listed as doxorubicin after modification with N-c-maleimidocaproic acid hydrazide): did not lead to significant quantities of doxorubicinol

Subjects with LVEF < 50% at any post-baseline cycle [2]: 3 (8.6) n (%) | Subjects with a 10% fall in LVEF [2]: 10 (29.4) n (%) | Subjects with LVEF below 50% of any post-baseline visit [3, 14]: 9 (19.1) n (%)
SMILES: COc1cccc2c1C(=O)c1c(O)c3c(c(O)c1C2=O)C[C@@](O)(C(=O)CO)C[C@@H]3O[C@H]1C[C@H](N)[C@H](O)[C@H](C)O1 [Doxorubicin, reference compound]
Median PFS [1, 9]: 83 days | PFS Events [1, 10]: 29 | Median PFS [1, 11]: 82.0 days | PFS Events [1, 12]: 42 | Median PFS [1, 13]: 48.0 days | Allowable maximum cumulative lifetime dose ([7]; limit set in view of cardiotoxicity): 550 mg/m^2
